Results taken from patent US10829501B2 (BRISTOL-MYERS SQUIBB COMPANY, priority 2016, dated 2020).

biological target: ROCK2 (Homo sapiens, UniProt O75116); test: ROCK2 kinase inhibition assay (LABCHIP 3000 Reader, FITC peptide substrate);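 also: rho kinase reaction read by separating phosphorylated from unphosphorylated peptide on chip, with inhibition of kinase activity computed per concentration across a dose-response series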
Sequence (O75116 whole entry, species assumed): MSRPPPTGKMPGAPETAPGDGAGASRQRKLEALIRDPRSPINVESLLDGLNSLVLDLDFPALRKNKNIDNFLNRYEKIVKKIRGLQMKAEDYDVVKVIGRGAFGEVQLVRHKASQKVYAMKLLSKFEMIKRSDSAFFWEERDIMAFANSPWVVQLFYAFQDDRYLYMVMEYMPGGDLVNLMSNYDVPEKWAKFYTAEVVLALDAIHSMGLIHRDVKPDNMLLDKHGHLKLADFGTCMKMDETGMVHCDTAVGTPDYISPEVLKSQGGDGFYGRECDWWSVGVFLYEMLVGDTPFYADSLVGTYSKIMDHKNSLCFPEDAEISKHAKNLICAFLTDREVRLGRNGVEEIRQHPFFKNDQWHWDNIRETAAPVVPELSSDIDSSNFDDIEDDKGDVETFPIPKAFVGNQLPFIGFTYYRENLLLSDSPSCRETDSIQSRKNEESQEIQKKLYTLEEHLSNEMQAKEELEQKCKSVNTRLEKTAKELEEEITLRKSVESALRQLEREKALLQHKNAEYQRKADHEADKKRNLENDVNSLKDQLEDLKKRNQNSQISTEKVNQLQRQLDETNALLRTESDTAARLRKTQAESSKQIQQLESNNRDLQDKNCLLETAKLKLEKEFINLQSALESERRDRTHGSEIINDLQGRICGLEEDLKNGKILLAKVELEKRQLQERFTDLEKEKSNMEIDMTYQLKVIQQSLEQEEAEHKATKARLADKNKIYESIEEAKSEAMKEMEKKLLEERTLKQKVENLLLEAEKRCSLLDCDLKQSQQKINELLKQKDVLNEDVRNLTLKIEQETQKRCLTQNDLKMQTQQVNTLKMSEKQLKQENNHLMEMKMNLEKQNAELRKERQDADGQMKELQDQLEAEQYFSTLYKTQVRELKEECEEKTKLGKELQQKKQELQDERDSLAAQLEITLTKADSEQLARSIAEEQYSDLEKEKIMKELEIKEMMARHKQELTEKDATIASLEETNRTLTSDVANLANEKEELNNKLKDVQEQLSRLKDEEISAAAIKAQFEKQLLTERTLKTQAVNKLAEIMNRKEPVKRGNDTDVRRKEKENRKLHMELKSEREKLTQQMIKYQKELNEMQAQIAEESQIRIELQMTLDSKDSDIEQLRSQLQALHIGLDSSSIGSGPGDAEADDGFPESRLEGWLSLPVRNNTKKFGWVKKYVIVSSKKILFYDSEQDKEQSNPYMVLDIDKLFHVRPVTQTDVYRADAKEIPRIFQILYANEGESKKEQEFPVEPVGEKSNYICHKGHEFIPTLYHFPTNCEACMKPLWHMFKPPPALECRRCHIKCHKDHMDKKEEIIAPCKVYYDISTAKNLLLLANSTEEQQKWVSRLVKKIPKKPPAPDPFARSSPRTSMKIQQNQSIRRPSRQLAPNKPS

`NC(=O)c1ccccc1O[C@H]1CC2(C[C@H](NC(=O)c3cnn4cc(OC5CCS(=O)(=O)CC5)ccc34)C2)C1` (stereo partly drawn) [Example 28, N-[(aR)-6-(2-carbamoylphenoxy)spiro [3.3]heptan-2-yl]-6-[(1,1-dioxo-1λ^6-thian-4-yl)oxy]pyrazolo [1,5-a]pyridine-3-carboxamide] and `NC(=O)c1ccccc1OC1CC2(CC(NC(=O)c3cnn4c(C5CC5)c(OC5CCS(=O)(=O)CC5)ccc34)C2)C1` [Example 35, N-[(aR)-6-(2-carbamoylphenoxy)spiro [3.3]heptan-2-yl]-7-cyclopropyl-6-[(1,1-dioxo-1λ^6-thian-4-yl)oxy]pyrazolo[1,5-a] pyridine-3-carboxamide] cannot be ordered by IC50: < 5 nM for the first, < 5 nM for the second.

`NC(=O)c1ccccc1O[C@H]1CC2(C[C@H](NC(=O)c3cnc4cc(N5CCOCC5)ccn34)C2)C1` (stereo partly drawn) [Example 29, N-[(aR)-6-(2-carbamoylphenoxy)spiro [3.3]heptan-2-yl]-7-(morpholin-4-yl)imidazo[1,2-a]pyridine-3-carboxamide] and `CN1CCN(c2ccn3c(C(=O)N[C@H]4CC5(C4)C[C@H](Oc4ccccc4C(N)=O)C5)cnc3c2)CC1` (stereo partly drawn) [Example 36, N-[(aR)-6-(2-carbamoylphenoxy)spiro [3.3]heptan-2-yl]-7-(4-methylpiperazin-1-yl)imidazo[1,2-a] pyridine-3-carboxamdie] fall in the same range of IC50: 5 to 50 nM for the first, 5 to 50 nM for the second.

First: CS(=O)(=O)CCCOc1ccc2c(C(=O)NC3CC4(C3)CC(Oc3ccccc3C(N)=O)C4)cnn2c1C1CC1 [Example 30, N-[(aR)-6-(2-carbamoylphenoxy)spiro [3.3]heptan-2-yl]-7-cyclopropyl-6-(3-methanesulfonylpropoxy) pyrazolo[1,5-a] pyridine-3-carboxamide]
Second: NC(=O)c1ccccc1O[C@H]1CC2(C[C@H](NC(=O)c3cnn4c(C5CC5)c(OCCO)ccc34)C2)C1 (stereo partly drawn) [Example 31, N-[(aR)-6-(2-carbamoylphenoxy)spiro [3.3]heptan-2-yl]-7-cyclopropyl-6-(2-hydroxyethoxy)pyrazolo[1,5-a]pyridine-3-carboxamide]
The IC50 of the first is lower: < 5 nM for the first, 5 to 50 nM for the second.

`NC(=O)c1ccccc1OC1CC2(CC(NC(=O)c3cnn4c(C5CC5)c(OCCC(F)(F)F)ccc34)C2)C1` [Example 32, N-[(aR)-6-(2-carbamoylphenoxy)spiro [3.3]heptan-2-yl]-7-cyclopropyl-6-(3,3,3-trifluoropropoxy)pyrazolo [1,5-a]pyridine-3-carboxamide] and `NC(=O)c1ccccc1O[C@H]1CC2(C[C@H](NC(=O)c3cnn4cc(OCCC(F)(F)F)ccc34)C2)C1` (stereo partly drawn) [Example 33, N-[(aR)-6-(2-carbamoylphenoxy)spiro [3.3]heptan-2-yl]-6-(3,3,3-trifluoropropoxy) pyrazolo[1,5-a]pyridine-3-carboxamide] cannot be ordered by IC50: < 5 nM for the first, < 5 nM for the second.

First: Cn1cc(-c2ccn3c(C(=O)N[C@H]4CC5(C4)C[C@H](Oc4ccccc4C(N)=O)C5)cnc3c2)cn1 (stereo partly drawn) [Example 34, N-[(aR)-6-(2-carbamoylphenoxy)spiro [3.3]heptan-2-yl]-7-(1-methyl-1H-pyrazol-4-yl)imidazo [1,2-a]pyridine-3-carboxamide]
Second: NC(=O)c1ccccc1O[C@H]1CC2(C[C@H](NC(=O)N3CCc4ccccc43)C2)C1 (stereo partly drawn) [Example 37, N-((aR)-6-(2-carbamoylphenoxy)spiro[3.3]heptan-2-yl)indoline-1-carboxamide]
The IC50 of the first is lower: 5 to 50 nM for the first, 50 to 250 nM for the second. The first is the more potent here.

First: COc1ccc2c(c1)CCN2C(=O)N[C@H]1CC2(C1)C[C@H](Oc1ccccc1C(N)=O)C2 (stereo partly drawn) [Example 38, N-[(aR)-6-(2-carbamoylphenoxy)spiro [3.3]heptan-2-yl]-5-methoxy-2,3-dihydro-1H-indole-1-carboxamide]
Second: CS(=O)(=O)c1ccc2c(c1)CCN2C(=O)N[C@H]1CC2(C1)C[C@H](Oc1ccccc1C(N)=O)C2 (stereo partly drawn) [Example 39, N-[(aR)-6-(2-carbamoylphenoxy)spiro [3.3]heptan-2-yl]-5-methanesulfonyl-2,3-dihydro-1H-indole-1-carboxamide]
The IC50 of the first is lower: 5 to 50 nM for the first, 50 to 250 nM for the second.
